Measured values from ChEMBL document CHEMBL1122738, “A cyclic angiotensin antagonist: [1,8-cysteine]angiotensin II” (1984).
Positions of bridges follow the written chain, without caps; N, C: chain ends. Residues, ends and D or L forms follow the SMILES beside them. Chains are numbered I, II in the order given.

Organism: Rattus norvegicus
Assay: Minimum effective concentration required to abolish the response to an ED75 dose of ANG II (10e-8 M) in the isolated rat uterus assay
Assay type: functional
Details: read-out: MEC

Compound	minimal effective concentration
CC[C@H](C)[C@H](NC(=O)[C@@H]1CCCN1C(=O)[C@H](Cc1c[nH]cn1)NC(=O)[C@@H](NC(=O)[C@H](Cc1ccc(O)cc1)NC(=O)[C@@H](NC(=O)[C@H](CCCN=C(N)N)NC(=O)CNC)C(C)C)[C@@H](C)CC)C(=O)O	0.021 µM
CC[C@H](C)[C@@H]1NC(=O)[C@H](Cc2ccc(O)cc2)NC(=O)[C@H](C(C)C)NC(=O)[C@H](CCCN=C(N)N)NC(=O)[C@@H](N)CSSC[C@H](N)C(=O)N[C@@H](CCCN=C(N)N)C(=O)N[C@@H](C(C)C)C(=O)N[C@@H](Cc2ccc(O)cc2)C(=O)N[C@@H]([C@@H](C)CC)C(=O)N[C@@H](Cc2c[nH]cn2)C(=O)N2CCC[C@H]2C(=O)N[C@H](C(=O)O)CSSC[C@@H](C(=O)O)NC(=O)[C@@H]2CCCN2C(=O)[C@H](Cc2c[nH]cn2)NC1=O (I: H-CRVYIHPC-OH / II: H-CRVYIHPC-OH; disulfide I:1-II:1, I:8-II:8)	9.6 µM
CC[C@H](C)[C@@H]1NC(=O)[C@H](Cc2ccc(O)cc2)NC(=O)[C@H](C(C)C)NC(=O)[C@H](CCCN=C(N)N)NC(=O)[C@@H](N)CSSC[C@@H](C(=O)O)NC(=O)[C@@H]2CCCN2C(=O)[C@H](Cc2c[nH]cn2)NC1=O (H-CRVYIHPC-OH; disulfide 1-8)	3.3 µM
CC[C@H](C)[C@H](NC(=O)[C@H](Cc1ccc(O)cc1)NC(=O)[C@@H](NC(=O)[C@H](CCCN=C(N)N)NC(=O)[C@@H](N)CSCNC(C)=O)C(C)C)C(=O)N[C@@H](Cc1c[nH]cn1)C(=O)N1CCC[C@H]1C(=O)N[C@@H](CSCNC(C)=O)C(=O)O	0.24 µM
